Biological target: T1, human V1a receptor (Homo sapiens, UniProt P37288)
T1 construct: expressed in transfected cells; host or cells: HEK293 cells, transiently transfected; cell membranes used
Assay: human V1a receptor binding study (3H-Vasopressin SPA, membranes of transfected HEK293 cells)
Settings: membranes of HEK293 cells transiently transfected with human V1a receptor, Ki by Cheng-Prussoff equation, read-out: pKi(hV1a) (converted)
Method: The human V1a receptor was cloned by RT-PCR from total human liver RNA. The coding sequence was subcloned in an expression vector after sequencing to confirm the identity of the amplified sequence. […] Cell membranes were prepared from HEK293 cells transiently transfected with the expression vector and grown in 20 liter fermenters with the following protocol.
50 g of cells were resuspended in 30 ml freshly prepared ice cold Lysis buffer (50 mM HEPES, 1 mM EDTA, 10 mM MgCl2 adjusted to pH=7.4+complete cocktail of protease inhibitor (Roche Diagnostics)). Homogenized with Polytron for 1 min and sonicated on ice for 2×2 minutes at 80%, intensity (Vibracell sonicator). The preparation was centrifuged 20 min at 500 g at 4° C., the pellet was discarded and the supernatant centrifuged 1 hour at 43,000 g at 4° C. (19,000 rpm). The pellet was resuspended in 12.5 ml Lysis buffer+12.5 ml Sucrose 20% and homogenized using a Polytron for 1-2 min. The protein concentration was determined by the Bradford method and aliquots were stored at −80° C. until use. For binding studies 60 mg Yttrium silicate SPA beads (Amersham) were mixed with an aliquot of membrane in binding buffer (50 mM Tris, 120 mM NaCl, 5 mM KCl, 2 mM CaCl2, 10 mM MgCl2) for 15 minutes with mixing. 50 ul of bead/membrane mixture was then added to each well of a 96 well plate, followed by 50 ul of 4 nM 3H-Vasopressin (American Radiolabeled Chemicals). For total binding measurement 100 ul of binding buffer were added to the respective wells, for non-specific binding 100 ul of 8.4 mM cold vasopressin and for compound testing 100 ul of a serial dilution of each compound in 2% DMSO. The plate was incubated 1 h at room temperature, centrifuged 1 min at 1000 g and counted on a Packard Top-Count. Non-specific binding counts were subtracted from each well and data was normalized to the maximum specific binding set at 100%. To calculate an IC 50 the curve was fitted using a non-linear regression model (XLfit) and the Ki was calculated using the Cheng-Prussoff equation.

T1 sequence (P37288 whole entry): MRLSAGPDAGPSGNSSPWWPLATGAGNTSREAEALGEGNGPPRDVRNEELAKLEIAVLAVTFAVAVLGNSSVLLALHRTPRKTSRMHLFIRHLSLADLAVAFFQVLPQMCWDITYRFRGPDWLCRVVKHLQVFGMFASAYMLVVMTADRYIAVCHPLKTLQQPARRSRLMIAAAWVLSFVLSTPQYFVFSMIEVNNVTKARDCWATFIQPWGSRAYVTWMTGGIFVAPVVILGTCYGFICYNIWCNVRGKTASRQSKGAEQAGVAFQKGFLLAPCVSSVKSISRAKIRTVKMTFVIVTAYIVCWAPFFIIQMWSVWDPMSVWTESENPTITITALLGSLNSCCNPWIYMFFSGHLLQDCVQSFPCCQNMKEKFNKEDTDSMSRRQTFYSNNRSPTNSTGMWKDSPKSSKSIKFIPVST

Row | Ki [nM] | SMILES
1 | 47.3 | N#CCn1c(C(=O)N2CCC3(CC2)CC(=O)Nc2ccc(Br)cc23)cc2cc(Cl)ccc21 [Example 7, {2-[(6′-Bromo-2′-oxo-2′,3′-dihydro-1H,1′H-spiro[piperidine-4,4′-quinolin]-1-yl)carbonyl]-5-chloro-1H-indol-1-yl}acetonitrile]
2 | 29.9 | Cn1c(C(=O)N2CCC3(CC2)OC(=O)Nc2ccccc23)cc2cc(Cl)ccc21 [Example 14, 1′-[(5-Chloro-1-methyl-1H-indol-2-yl)carbonyl]spiro[3,1-benzoxazine-4,4′-piperidin]-2(1H)-one]
3 | 60.3 | N#CCn1c(C(=O)N2CCC3(CC2)OC(=O)Nc2ccccc23)cc2ccccc21 [Example 15, {2-[(2-Oxo-1,2-dihydro-1′H-spiro[3,1-benzoxazine-4,4′-piperidin]-1′-yl)carbonyl]-1H-indol-1-yl}acetonitrile]
4 | 10.6 | N#CCn1c(C(=O)N2CCC3(CC2)OC(=O)Nc2ccccc23)cc2cc(Cl)ccc21 [Example 16, {5-Chloro-2-[(2-oxo-1,2-dihydro-1′H-spiro[3,1-benzoxazine-4,4′-piperidin]-1′-yl)carbonyl]-1H-indol-1-yl}acetonitrile]

From patent US7432259B2, “Spiro-piperidine derivatives” (Hoffmann-La Roche Inc., priority 2006, dated 2008)
